US7964613B2 (Asahi Kasei Pharma Corporation, priority 2007, dated 2011)
Where a name gives a salt, the structure may show the parent alone.

Legend:
[1] = system: myosin regulatory light chain of mesenteric artery; details: cited from earlier work
intraocular pressure [2] = test: Rabbit intraocular pressure reduction enhancing action, Test Example 7-1 (combination use); format: in vivo, Japanese white rabbit; details: 19-1 compound 0.01 weight % aqueous solution 50 μL, left-right eye difference at 2, 4, 6 hours, six rabbits
Description: However, the effect is not limited to the 19-1 compound, and the ophthalmic solution concentration of the 19-1 compound is not limited to those used in this test example. Moreover, as for the test compound used for combination use, similar effect can be obtained also with the compounds of the present invention represented with the example numbers mentioned in Test Example 3.
As a test compound, the 19-1 compound was dissolved in physiological saline, and the solution was neutralized by addition of sodium hydroxide (pH 7.0 to 8.0) to prepare a 0.01 weight % aqueous solution (19-1 compound aqueous solution). As the drugs for combination use, isopropyl unoprostone (trade name: Rescula, Santen Pharmaceutical) was used as a prostaglandin-related drug, and brinzolamide hydrochloride (trade name: Azopt, Alcon Japan) was used as […], as the marketed formulations as they were.
A Japanese white rabbit having a body weight of about 2 kg was placed in a positioner and naturalized for one week before the experiment. An opthalmologic local anesthesant (Benoxil) was administered to both eyes, and then intraocular pressure before instillation was measured by using a tonometer (Classic 30, Solan). A test aqueous solution or the drug for combination use was administered to the left eye, and the right eye was not treated (control eye). The test groups consisted of (1) control group, (2) group instilled only with the 19-1 compound aqueous solution (single drug group 1), (3) group instilled only with the drug for combination use (single drug group 2), and (4) group instilled with the drug for combination use and the 19-1 compound aqueous solution (combination use group), and six rabbits were used for each group. As for the rabbits of these groups, 50 μL of physiological saline was first instilled to the control group, single drug group 1, and single drug group 2, and the drug for combination use was first instilled in the same volume to the combination use group. […] The intraocular pressure thereafter was measured for each group 2, 4 and 6 hours after the second administration of the test compound, and the difference of the measured values for the left and right eyes at each measurement time was considered an intraocular pressure reduction value of each group. The largest difference of the intraocular pressure values for the left and right eyes among those of the measured values of the measurement times was considered the maximum intraocular pressure reduction value (max ? IOP) of each drug group.

intraocular pressure [3] = test: Rabbit intraocular pressure reduction enhancing action, Test Example 7-2 (combination use with timolol maleate); format: in vivo, Japanese white rabbit; details: Table 6; 19-1 compound 0.01 weight % aqueous solution 50 μL, Timoptol 50 μL; difference relative to control group at 1, 2, 4 hours; 12 rabbits
Description: As a test compound, the 19-1 compound was dissolved in physiological saline, and the solution was neutralized by addition of sodium hydroxide (pH 7.0 to 8.0) to prepare a 0.01 weight % aqueous solution (19-1 compound aqueous solution). As a drug for combination use, timolol maleate (trade name: Timoptol, Santen Pharmaceutical) was used as an adrenergic receptor β blocker, as the marketed formulation as it was.
A Japanese white rabbit having a body weight of about 2 kg was placed in a positioner and naturalized for one week before the experiment. An opthalmologic local anesthesant (Benoxil) was administered to both eyes, and then intraocular pressure before instillation was measured by using a tonometer (Classic 30, Solan). […] The intraocular pressure thereafter was measured for each group 1, 2 and 4 hours after the second administration of the test compound, and the difference of the measured values at each measurement time for the each group and the control group was considered an intraocular pressure reduction value of each group. The largest difference of the intraocular pressure values relative to the control group among those of the measured values of the measurement times was considered the maximum intraocular pressure reduction value (max ? IOP) of each drug group.

## CC1CNCCN1S(=O)(=O)c1cccc2cnccc12 (stereo not shown) [Example H-7, 1-(5-isoquinolinesulfonyl)-2-methylpiperazine]
[1]
  inhibition of phosphorylation of myosin regulatory light chain: inhibits the phosphorylation of myosin regulatory light chain of mesenteric artery

## CCN[C@H]1CN(CCCOC)S(=O)(=O)c2sc(S(N)(=O)=O)cc21 [brinzolamide hydrochloride, reference compound]
Intraocular pressure [2]; Table 4, Azopt 50 μL
  Max IOP (maximum intraocular pressure reduction value): 2.3 mmHg

## CCCCCCCC(=O)CC[C@@H]1[C@@H](C/C=C\CCCC(=O)OC(C)C)[C@@H](O)C[C@H]1O [isopropyl unoprostone, reference compound]
Intraocular pressure [2]; Table 5, Rescula 50 μL
  Max IOP (maximum intraocular pressure reduction value): 4.4 mmHg

## CC(C)(C)NC[C@H](O)COc1nsnc1N1CCOCC1 [timolol maleate, reference compound]
Intraocular pressure [3]
  Max IOP (maximum intraocular pressure reduction value): 1.9 mmHg
